Experimental findings from patent US20260315483A1, “HETEROCYCLIC COMPOUNDS AS TRIGGERING RECEPTOR EXPRESSED ON MYELOID CELLS 2 AGONISTS AND METHODS OF USE” (VIGIL NEUROSCIENCE, INC., priority 2023, published 2026) are described below.

The structures appear in SMILES notation.

As a reminder, the EC50 is the concentration that produces a half-maximal response. Higher therefore signals a need for much substance.

This test has as its target T1, human TREM2 (Homo sapiens, UniProt Q9NZC2).
T1 construct: expressed in transfected cells; host or cells: HEK293T-hTREM2 cells (HEK cell line expressing human TREM2 and DAP12)
The test is described as follows: In vitro measurement of TREM2 activity using cellular phosphorylation of spleen tyrosine kinase (Syk), AlphaLisa, HEK293T-hTREM2 cells. Format: cell-based. Particulars: HEK293T cells expressing human TREM2 and DAP12, 45 min at room temperature. The protocol: In Vitro Measurement of Triggering Receptor Expressed on Myeloid Cells 2 Activity Using Cellular Phosphorylation of Spleen Tyrosine Kinase (“Syk”) Assays
Measurement of TREM2 agonist potency was done using a HEK cell line expressing human TREM2 and DAP12 (HEK293T-hTREM2 cells). Binding of small molecules to, and activation of, TREM2 increases the phosphorylation of Syk. The resultant levels of Syk phosphorylation are measured using a commercial AlphaLisa reagent kit. To perform the assay, HEK-hTREM2 cells were plated at 14,000 cells per well in a 384 well plate, in 25 μL of complete growth media and incubated at 37° C., 5% CO2 for 20-24 hours.
Prior to the assay, test compounds were diluted in the 384 well plates in assay buffer and allowed to equilibrate for 30 minutes. Growth media was removed from cell plates by inversion on blotting paper, and 25 μL of test articles in assay buffer was added to cells. Cells were incubated for 45 minutes at room temperature. After 45 minutes, assay buffer was removed and 10 μL of lysis buffer was added. Plates were shaken for 20 minutes at 350 RPM at room temperature. After complete lysis, AlphaLisa reagents were added to the lysate, and fluourescence intensity was measured using a Perkin Elmer Envision plate reader. Intensities were used to generate a standard curve, and % activation was calculated. Curve fitting was performed using Prism v9 software, log(agonist) vs response—variable slope (four parameters), and EC50s were calculated from the curve fit.
The results presented in Tables D and D-2 have been generated with the in vitro assay described above. This assay may be used to test any of the compounds described herein to assess and characterize a compound's ability to act as an agonist of TREM2.
(In general: Bead proximity is the source of the signal in Alpha formats.)

T1 sequence (Q9NZC2 19-230): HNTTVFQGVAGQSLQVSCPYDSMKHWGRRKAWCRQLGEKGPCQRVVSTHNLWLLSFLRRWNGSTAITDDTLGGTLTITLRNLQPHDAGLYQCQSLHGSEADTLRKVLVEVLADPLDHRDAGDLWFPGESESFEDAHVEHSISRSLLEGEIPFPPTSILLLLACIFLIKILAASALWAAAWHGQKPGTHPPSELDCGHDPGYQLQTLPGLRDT
T1 sequence (O43914 22-113 partner): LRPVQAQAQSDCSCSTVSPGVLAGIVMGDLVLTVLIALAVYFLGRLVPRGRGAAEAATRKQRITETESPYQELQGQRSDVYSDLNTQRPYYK

With `C[C@@H]1CN(c2cc3c(c(C4CCC(C(F)(F)F)CC4)n2)CN(C)C3=O)C[C@H](c2cnn(C3CC3)c2)O1` (mixture of isomers) [compound 227, 6-[(2S,6R)-2-(1-cyclopropylpyrazol-4-yl)-6-methyl-morpholin-4-yl]-2-methyl-4-[4-(trifluoromethyl)cyclohexyl]-3H-pyrrolo[3,4-c]pyridin-1-one], the EC50 (Table D-2) lay in the range of 50 to 500 nM.
`CN(C)c1nc2nc(C3CCO[C@@H](c4cnn(C5CC5)c4)C3)nc(-c3cc(F)ccc3F)c2s1` (mixture of isomers) [compound 104, 7-(2,5-difluorophenyl)-N,N-dimethyl-5-[rac-(2R)-2-(1-cyclopropylpyrazol-4-yl)tetrahydropyran-4-yl]thiazolo[4,5-d]pyrimidin-2-amine]: the EC50 (Table D) is 50 to 500 nM.
For the molecule `CN(C)c1nc2nc([C@@H]3CCO[C@@H](c4cnn(C5CC5)c4)C3)nc(-c3cc(F)c(Cl)cc3F)c2s1` (racemic) [compound 106, 7-(4-chloro-2,5-difluoro-phenyl)-N,N-dimethyl-5-[rac-(2R,4R)-2-(1-cyclopropylpyrazol-4-yl)tetrahydropyran-4-yl]thiazolo[4,5-d]pyrimidin-2-amine], the EC50 (Table D) lay in the range of 3000 to 100000 nM.
Still for that read-out and setting: to `CN(C)c1nc2nc(C3CCO[C@@H](c4cnn(C5CC5)c4)C3)nc(-c3ccc(F)c(F)c3F)c2s1` (stereo in doubt) [compound 107, 5-[(2R,4R)-2-(1-cyclopropylpyrazol-4-yl)tetrahydropyran-4-yl]-N,N-dimethyl-7-(2,3,4-trifluorophenyl)thiazolo[4,5-d]pyrimidin-2-amine] belongs not above 50 nM.
`CN(C)c1nc2nc(C3CCO[C@@H](c4cnn(C5CC5)c4)C3)nc(-c3ccc(F)c(F)c3F)c2s1` (stereo in doubt) [compound 108, 5-[(2R,4S)-2-(1-cyclopropylpyrazol-4-yl)tetrahydropyran-4-yl]-N,N-dimethyl-7-(2,3,4-trifluorophenyl)thiazolo[4,5-d]pyrimidin-2-amine] returned an EC50 (Table D) of 50 to 500 nM.
On to `CN(C)c1nc2nc([C@H]3CCO[C@@H](c4ccc(=O)n(C)c4)C3)nc(-c3ccc(F)cc3F)c2s1` (stereo in doubt) [compound 119, 5-[(2R,4S)-4-[7-(2,4-difluorophenyl)-2-(dimethylamino)thiazolo[4,5-d]pyrimidin-5-yl]tetrahydropyran-2-yl]-1-methyl-pyridin-2-one], for which the EC50 (Table D) is 50 to 500 nM.
Same read-out and setting: to `CN(C)c1nc2nc([C@@H]3CCO[C@H](c4ccc(=O)n(C)c4)C3)nc(-c3ccc(F)cc3F)c2s1` (stereo in doubt) [compound 120, 5-[(2S,4R)-4-[7-(2,4-difluorophenyl)-2-(dimethylamino)thiazolo[4,5-d]pyrimidin-5-yl]tetrahydropyran-2-yl]-1-methyl-pyridin-2-one] belongs not above 50 nM; to `CN(C)c1nc2nc([C@H]3CCO[C@H](c4ccc(=O)n(C)c4)C3)nc(-c3ccc(F)cc3F)c2s1` (stereo in doubt) [compound 121, 5-[(2S,4S)-4-[7-(2,4-difluorophenyl)-2-(dimethylamino)thiazolo[4,5-d]pyrimidin-5-yl]tetrahydropyran-2-yl]-1-methyl-pyridin-2-one], 50 to 500 nM.
Consider `CN(C)c1nc2nc(N3CCO[C@@H](c4cnn(C5CC5)c4)C3)nc(-c3ccc(F)cc3F)c2s1` [compound 100, 5-[(2S)-2-(1-cyclopropylpyrazol-4-yl)morpholin-4-yl]-7-(2,4-difluorophenyl)-N,N-dimethyl-thiazolo[4,5-d]pyrimidin-2-amine], for which, where the note is “Table D”, the 50% effective concentration (EC50) was not above 50 nM.
In the case of `CN(C)c1nc2nc(N3CCO[C@H](c4cnn(C5CC5)c4)C3)nc(-c3ccc(F)cc3F)c2s1` [compound 101, 5-[(2R)-2-(1-cyclopropylpyrazol-4-yl)morpholin-4-yl]-7-(2,4-difluorophenyl)-N,N-dimethyl-thiazolo[4,5-d]pyrimidin-2-amine], for the setting “Table D”, the EC50 lay in the range of 50 to 500 nM.
Molecule `C[C@@H]1CN(c2nc(-c3ccc(C(F)F)cc3F)c3sc(N(C)C)nc3n2)C[C@H](c2cnn(C3CC3)c2)O1` [compound 102, 5-[(2S,6R)-2-(1-cyclopropylpyrazol-4-yl)-6-methyl-morpholin-4-yl]-7-[4-(difluoromethyl)-2-fluoro-phenyl]-N,N-dimethyl-thiazolo[4,5-d]pyrimidin-2-amine] displayed an EC50 (Table D) not above 50 nM.
Same read-out and setting: to `CN(C)c1nc2nc([C@H]3CCO[C@@H](c4cnn(C5CC5)c4)C3)nc(-c3ccc(C(F)F)cc3F)c2s1` [compound 103, 5-[(2R,4S)-2-(1-cyclopropylpyrazol-4-yl)tetrahydropyran-4-yl]-7-[4-(difluoromethyl)-2-fluoro-phenyl]-N,N-dimethyl-thiazolo[4,5-d]pyrimidin-2-amine] belongs 50 to 500 nM.
`CN(C)c1nc2nc([C@H]3CCO[C@@H](c4cnn(C5CC5)c4)C3)nc(-c3cc(F)c(Cl)cc3F)c2s1` [compound 105, 7-(4-chloro-2,5-difluoro-phenyl)-N,N-dimethyl-5-[(2R,4S)-2-(1-cyclopropylpyrazol-4-yl)tetrahydropyran-4-yl]thiazolo[4,5-d]pyrimidin-2-amine] had an EC50 (Table D) not above 50 nM.
Same read-out and setting: to `C[C@@H]1CN(c2nc(-c3ccc(F)cc3F)c3sc(N4CCC[C@H]4C)nc3n2)C[C@H](c2cnn(C3CC3)c2)O1` [compound 109, (2S,6R)-2-(1-cyclopropyl-1H-pyrazol-4-yl)-4-(7-(2,4-difluorophenyl)-2-((R)-2-methylpyrrolidin-1-yl)thiazolo[4,5-d]pyrimidin-5-yl)-6-methylmorpholine] belongs not above 50 nM; to `Cc1ccc(-c2nc(N3C[C@@H](C)O[C@@H](c4cnn(C5CC5)c4)C3)nc3nc(N(C)C)sc23)c(F)c1` [compound 110, 5-[(2S,6R)-2-(1-cyclopropylpyrazol-4-yl)-6-methyl-morpholin-4-yl]-7-(2-fluoro-4-methyl-phenyl)-N,N-dimethyl-thiazolo[4,5-d]pyrimidin-2-amine], not above 50 nM; to `C[C@@H]1CN(c2cc(-c3ccc(F)cc3F)c3sccc3n2)C[C@H](c2cnn(C3CC3)c2)O1` [compound 111, (2S,6R)-2-(1-cyclopropylpyrazol-4-yl)-4-[7-(2,4-difluorophenyl)thieno[3,2-b]pyridin-5-yl]-6-methyl-morpholine], 500 to 3000 nM.
Consider `C[C@@H]1CN(c2nc(-c3ccc(F)cc3F)c3sc(N4CCC[C@@H]4C)nc3n2)C[C@H](c2cnn(C3CC3)c2)O1` [compound 112, (2S,6R)-2-(1-cyclopropylpyrazol-4-yl)-4-[7-(2,4-difluorophenyl)-2-[(2S)-2-methylpyrrolidin-1-yl]thiazolo[4,5-d]pyrimidin-5-yl]-6-methyl-morpholine], for which the EC50 (Table D) was not above 50 nM.
On the same count and under the same terms, then `CC(C)c1nc2nc(N3C[C@@H](C)O[C@@H](c4cnn(C5CC5)c4)C3)nc(-c3ccc(F)cc3F)c2s1` [compound 113, (2S,6R)-2-(1-cyclopropyl-1H-pyrazol-4-yl)-4-(7-(2,4-difluorophenyl)-2-isopropylthiazolo[4,5-d]pyrimidin-5-yl)-6-methylmorpholine], with not above 50 nM; and `CCCc1nc2nc(N3C[C@@H](C)O[C@@H](c4cnn(C5CC5)c4)C3)nc(-c3ccc(F)cc3F)c2s1` [compound 114, (2S,6R)-2-(1-cyclopropyl-1H-pyrazol-4-yl)-4-(7-(2,4-difluorophenyl)-2-propylthiazolo[4,5-d]pyrimidin-5-yl)-6-methylmorpholine], with not above 50 nM; and `Cc1cc([C@@H]2C[C@H](c3nc(-c4ccc(F)cc4F)c4sc(N(C)C)nc4n3)CCO2)ccn1` [compound 115, 7-(2,4-difluorophenyl)-N,N-dimethyl-5-[(2S,4R)-2-(2-methyl-4-pyridyl)tetrahydropyran-4-yl]thiazolo[4,5-d]pyrimidin-2-amine], with 500 to 3000 nM.
Turning to `Cc1cc([C@H]2C[C@@H](c3nc(-c4ccc(F)cc4F)c4sc(N(C)C)nc4n3)CCO2)ccn1` [compound 116, 7-(2,4-difluorophenyl)-N,N-dimethyl-5-[(2R,4S)-2-(2-methyl-4-pyridyl)tetrahydropyran-4-yl]thiazolo[4,5-d]pyrimidin-2-amine], the EC50 (Table D) is not above 50 nM.
Same read-out and setting: then `C[C@@H]1CN(c2nc(-c3ccc(C(F)(F)F)cc3)c3sc(N(C)C)nc3n2)C[C@H](c2cnn(C3CC3)c2)O1` [compound 117, 5-[(2S,6R)-2-(1-cyclopropyl-pyrazol-4-yl)-6-methyl-morpholin-4-yl]-N,N-dimeth-yl-7-[4-(trifluoromethyl)-phenyl]thiazolo[4,5-d]pyr-imidin-2-amine], with 50 to 500 nM.
Under “Table D”, `CC(C)Oc1nc2nc(N3C[C@@H](C)O[C@@H](c4cnn(C5CC5)c4)C3)nc(-c3ccc(C(F)(F)F)cc3F)c2s1` [compound 118, (2S,6R)-2-(1-cyclopropylpyrazol-4-yl)-4-[7-[2-fluoro-4-(trifluoromethyl)-phenyl]-2-isopropoxy-thiazolo[4,5-d]pyrimidin-5-yl]-6-methyl-morpholine] displayed an EC50 of 500 to 3000 nM.
